This assay addresses influenza B polymerase bound to a c/v hybrid promoter (Influenza B virus, UniProt Q5V8Y6). Description: biochemical. More on the design: species or system influenza B/Memphis/13/03.
The mark [1] stands for this setting: 0.025 mM NTPs, capped RNA primed, T ∼ 21°C, t = 10 min, read-out: IC50 (mM), c/v hybrid promoter.
The mark [2] stands for this setting: 0.25 mM NTPs, capped RNA primed, T ∼ 21°C, t = 5 min, read-out: IC50 (mM), c/v hybrid promoter.

“And” between values parts separate entries of the source, which are not always exact repeats. Equal values may be shown once. Read-outs that look alike come from different tables or passages of the source.

As to `Nc1ncnc2c1ncn2[C@@H]1O[C@H](COP(=O)(O)OP(=O)(O)OP(=O)(O)O)[C@@H](O)[C@H]1F` [2'F-2'dATP], the IC50 by setting is: under setting [1], 0.04 mM; under setting [2], 0.33 mM. For `Nc1ccn([C@@H]2O[C@H](COP(=O)(O)OP(=O)(O)OP(=O)(O)O)[C@@H](O)[C@H]2F)c(=O)n1` [2'F-2'dCTP], for the setting “IC50 (mM), c/v hybrid promoter”, the IC50 is 0.45 mM and 1.9 mM. As for `Nc1nc2c(ncn2[C@@H]2O[C@H](COP(=O)(O)OP(=O)(O)OP(=O)(O)O)[C@@H](O)[C@H]2F)c(=O)[nH]1` [2'F-2'dGTP], the IC50 reads like this: under setting [1], 0.04 mM; under setting [2], 0.34 mM.

(Values after paper PMC5399792 (Nucleic Acids Research, 2017).)
